Assay results: patent publication US20180353501A1 (Arvinas, Inc., priority 2017, published 2018)

Target: T1, p38δ:PROTAC:VHL ternary complex (Homo sapiens, UniProt O15264+P40337)
T1 construct: encoding a region spanning amino acids 1-365 was PCR-amplified; His6 (N); made in house; host or cells: E. coli (BL21-CodonPlus(DE3)-RIPL for p38δ; BL21(DE3) for GST-VBC)
Assay: In vitro ternary complex pull-down with GST-VBC bait, purified p38δ
Assay type: binding
Description: FIGS. 15A, 15B, and 15C. Differential p38δ:PROTAC:VHL ternary complex affinities result in distinct cellular ubiquitination outcomes. (A) Both exemplary compound 50 and 46 pull-down p38δ in vitro, however compound 46 maintains ternary complex at lower concentrations. As in FIG. 14A, GST-tagged VBC was used as a bait to trap recombinant p38δ in the presence of vehicle (DMSO) or the indicated concentrations of compound 50 or 46. The rightmost lane represents a 1:25 dilution of initial input protein used in each pull-down. […] GST-VBC was immobilized on glutathione sepharose beads and incubated with MDA-MB-231 whole cell lysate (WCL) in the presence of vehicle (DMSO) or the indicated concentrations of compound 50 or 46. Beads were washed and “trapped” proteins (i.e. those that engage in a ternary complex) were eluted with SDS sample buffer and separated by SDS-PAGE. Samples were assessed by western blot and CUL2 and α-tubulin serve as positive and negative GST-VBC immunoprecipitation controls, respectively. (C) Only exemplary compound 46 ubiquitinates FLAG-p38δ in HeLa cells. As in FIG. 14C, HeLa cells were co-transfected with HA-Ub and FLAG-p38δ and were either treated with vehicle (DMSO) or 1 μM of compound 50 or 1 μM of compound 46 for 2 hours. FLAGimmunoprecipitated lysates were separated by SDS-PAGE and assessed via western blots detecting HA (Ub). […]

T1 sequence (O15264 whole entry, the tested form may be a part): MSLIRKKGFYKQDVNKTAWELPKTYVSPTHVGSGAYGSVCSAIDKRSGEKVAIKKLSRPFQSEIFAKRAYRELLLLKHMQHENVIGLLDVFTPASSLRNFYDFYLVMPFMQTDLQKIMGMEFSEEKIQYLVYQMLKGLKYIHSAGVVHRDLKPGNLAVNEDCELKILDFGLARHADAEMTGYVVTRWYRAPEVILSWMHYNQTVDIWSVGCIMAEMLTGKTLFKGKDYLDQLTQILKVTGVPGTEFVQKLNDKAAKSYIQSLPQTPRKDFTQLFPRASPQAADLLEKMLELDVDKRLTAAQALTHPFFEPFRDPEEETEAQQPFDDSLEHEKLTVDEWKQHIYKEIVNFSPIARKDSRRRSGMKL
T1 sequence (P40337 whole entry, the tested form may be a part): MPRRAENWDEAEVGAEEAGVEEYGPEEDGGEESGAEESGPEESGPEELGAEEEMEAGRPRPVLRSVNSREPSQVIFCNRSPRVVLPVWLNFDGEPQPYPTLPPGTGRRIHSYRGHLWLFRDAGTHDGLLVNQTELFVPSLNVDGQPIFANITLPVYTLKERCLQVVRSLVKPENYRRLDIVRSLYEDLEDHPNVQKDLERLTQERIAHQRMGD
T1 sequence (Q15370 whole entry partner, the tested form may be a part): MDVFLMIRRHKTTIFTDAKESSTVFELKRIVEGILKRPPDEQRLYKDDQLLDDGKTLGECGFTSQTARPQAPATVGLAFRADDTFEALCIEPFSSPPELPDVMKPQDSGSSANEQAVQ
T1 sequence (Q15369 whole entry partner, the tested form may be a part): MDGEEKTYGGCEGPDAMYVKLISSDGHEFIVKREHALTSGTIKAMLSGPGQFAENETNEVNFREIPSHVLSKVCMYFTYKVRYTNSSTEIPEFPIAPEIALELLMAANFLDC

| SMILES | pull-down of purified p38δ on GST-VBC-coated beads |
| --- | --- |
| COc1cc2c(Oc3ccc(NC(=O)C4(C(=O)Nc5ccc(F)cc5)CC4)cc3F)ccnc2cc1OCCOCCOCCOc1cc(-c2scnc2C)ccc1CNC(=O)[C@@H]1C[C@@H](O)CN1C(=O)[C@H](C(C)C)N1Cc2ccccc2C1=O [compound 46] | slightly greater ternary complex pull-down efficiency |
| COc1cc2c(Oc3ccc(NC(=O)C4(C(=O)Nc5ccc(F)cc5)CC4)cc3F)ccnc2cc1OCCCCOCCCCOCC(=O)N[C@H](C(=O)N1C[C@H](O)C[C@H]1C(=O)NCc1ccc(-c2scnc2C)cc1)C(C)(C)C [compound 50, N-(3-fluoro-4-((7-(4-(4-(2-(((S)-1-((2S,4R)-4-hydroxy-2-((4-(4-methylthiazol-5-yl)benzyl)carbamoyl)pyrrolidin-1-yl)-3,3-dimethyl-1-oxobutan-2-yl)amino)-2-oxoethoxy)butoxy)buto-xy)-6-methoxyquinolin-4-yl)oxy)phenyl)-N-(4-fluorophenyl)cyclopropane-1,1-dicarboxa-mide] | able to pull-down purified p38δ on GST-VBC-coated beads in a dose-dependent manner |
